Assay results: publication PMC7796184, “Phytochemical Characterization, In Vitro Anti-Inflammatory, Anti-Diabetic, and Cytotoxic Activities of the Edible Aromatic Plant; Pulicaria jaubertii” (Molecules, 2021)
≈ marks a conversion by molar mass, not a printed value. One block for each compound: values may come before it.

How the values were obtained:
U937 human monocytes = assay: Histamine release assay (EIA kit) in PMA-treated U937 cells; type: cell-based; conditions: U-937, 20 nM Phorbol Myristate Acetate, 1 h, triplicate, read-out: Histamine release inhibition IC50
Procedure: In accordance with literature, extracts or standard diclofenac (7.81–1000 μg/mL) were added to U937 cells seeded in a 96-well plate in a concentration of 50,000 in presence or absence of 20 nM Phorbol Myristate Acetate. After 1 h, the treated and untreated cell cultures supernatants were collected and centrifuged at 10,000 rpm for 5 min at 4 °C. Then the samples were evaluated for released histamine by a commercially available EIA kit (SPI-Bio, Montigny le Bretonneux, France).

red blood cells (RBCs) = assay: Membrane stabilizing activity, hypotonic solution-induced hemolysis of RBCs; type: cell-based, rats; conditions: Erythrocyte, 10 min; rat RBCs, hypotonic solution pH 7.4, 10 min; triplicate; read-out: Membrane stabilization IC50 (inhibition of RBCs hemolysis)
Procedure: The method was conducted according to the literature. Erythrocyte suspension was prepared by withdrawing blood samples from rats with heparinized syringes through cardiac puncture. Then, phosphate buffer was used to wash blood samples three times with centrifugation after each washing at 3000 rpm for 10 min. […] Control samples were prepared by similar manner without extracts or indomethacin. Afterward, previous mixtures were withstanding for 10 min in room condition and subjected to 10 min centrifugation at 3000 rpm.

[1] = tested on: breast carcinoma (MCF-7) cell line; assay: cells; conditions: Homo sapiens, MCF7, read-out: Cytotoxicity IC50
Procedure: (§1) All cells were obtained from the American Type Culture Collection (ATCC, Rockville, MD, USA) and were cultured on RPMI 1640 medium supplemented with 10% inactivated fetal calf serum and 50 μg/mL gentamycin. The cells were maintained at 37 °C in a humidified atmosphere with 5% CO2 and were sub cultured two to three times a week. Cell viability percentage was calculated by the equation: Cell viability % = Ac/At × 100(5) where Ac = Absorbance obtained from of control cells, At = Absorbance obtained from treated cells.

[2] = tested on: prostate carcinoma (PC-3) cell line; assay: cells; conditions: Homo sapiens, PC-3, read-out: Cytotoxicity IC50
Procedure: as §1

[3] = tested on: hepatocarcinoma (HepG-2) cell line; assay: cells; conditions: Homo sapiens, HepG2, read-out: Cytotoxicity IC50
Procedure: as §1

IC50 (U937 human monocytes): 17.9 ± 1.6 mg/L (≈ 60.6 µM)
Structure (SMILES): O=C(O)Cc1ccccc1Nc1c(Cl)cccc1Cl [Diclofenac]

Structure (SMILES): COc1ccc2c(c1)c(CC(=O)O)c(C)n2C(=O)c1ccc(Cl)cc1 [Indomethacin]
IC50 (red blood cells (RBCs)): 17 ± 0.72 mg/L (≈ 47.6 µM)

Structure (SMILES): CC[C@]1(O)C[C@@H]2CN(CCc3c([nH]c4ccccc34)[C@@](C(=O)OC)(c3cc4c(cc3OC)N(C)[C@H]3[C@@](O)(C(=O)OC)[C@H](OC(C)=O)[C@]5(CC)C=CCN6CC[C@]43[C@@H]65)C2)C1 [Vinblastine]
IC50 [1]: 4.6 ± 0.18 mg/L (≈ 5.67 µM)
IC50 [2]: 5.5 ± 0.4 mg/L (≈ 6.78 µM)
IC50 [3]: 4.6 ± 0.17 mg/L (≈ 5.67 µM)
